Results: BindingDB's records for doi:10.1074/jbc.M113.537704 (Icahn School Of Medicine At Mount Sinai, 2014)

Key:
[1] = molecular target: EEF1AKMT4-ECE2 readthrough transcript protein (Homo sapiens, UniProt P0DPD8); assay: Enzyme Activity Assay; conditions: pH 5.5
Procedure: (§1) Recombinant ECE2 (32.5 ng) with a specific activity of 12 pmol/min/μg protein was generated as described previously. Secreted soluble recombinant ECE1 (30 ng) with a specific activity of 750 pmol/min/μg protein was generated and purified using a protocol similar to that used for ECE2. Solubilized midbrain membranes (10 μg) from wildtype or ECE2 knock-out mice were prepared as described. Enzymatic activity, in the absence or presence of the ECE2 inhibitor S136492 or the ECE1 inhibitor SM19712, was assayed using the synthetic quenched fluorescent substrate McaBk2 (10 μM) at 37 °C with either 0.2 M sodium acetate buffer, pH 5.5, or 50 mM Tris-Cl buffer, pH 7.4, as described previously [Gagnidze et al., J. Med. Chem., 51:3378-3387; Ouimet et al., J. Biol. Chem., 285:34390-34400].

[2] = molecular target: T1, Endothelin-converting enzyme 1 (Homo sapiens, UniProt P42892); assay: Enzyme Activity Assay
T1 sequence (P42892 whole entry): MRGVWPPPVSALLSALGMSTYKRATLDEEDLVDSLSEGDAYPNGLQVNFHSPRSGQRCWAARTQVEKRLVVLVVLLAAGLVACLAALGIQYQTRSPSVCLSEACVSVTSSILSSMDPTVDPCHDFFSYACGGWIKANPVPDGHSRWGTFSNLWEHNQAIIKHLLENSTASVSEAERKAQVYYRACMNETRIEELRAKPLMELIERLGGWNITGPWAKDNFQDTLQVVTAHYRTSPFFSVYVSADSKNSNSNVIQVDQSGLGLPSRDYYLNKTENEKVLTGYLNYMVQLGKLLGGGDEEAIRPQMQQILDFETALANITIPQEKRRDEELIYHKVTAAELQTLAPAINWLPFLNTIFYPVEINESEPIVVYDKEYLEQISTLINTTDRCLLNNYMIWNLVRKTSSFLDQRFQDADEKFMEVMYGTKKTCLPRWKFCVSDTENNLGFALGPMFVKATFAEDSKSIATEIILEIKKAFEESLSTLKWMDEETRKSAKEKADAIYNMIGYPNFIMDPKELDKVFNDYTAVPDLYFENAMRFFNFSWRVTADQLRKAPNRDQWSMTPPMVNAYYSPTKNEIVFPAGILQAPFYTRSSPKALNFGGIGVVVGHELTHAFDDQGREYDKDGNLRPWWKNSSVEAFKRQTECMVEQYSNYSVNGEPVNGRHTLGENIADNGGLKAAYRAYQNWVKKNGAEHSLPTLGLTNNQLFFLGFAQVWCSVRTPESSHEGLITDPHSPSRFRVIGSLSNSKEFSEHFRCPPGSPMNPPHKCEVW
Procedure: as §1

EEF1AKMT4-ECE2 readthrough transcript protein, sequence (P0DPD8 whole entry): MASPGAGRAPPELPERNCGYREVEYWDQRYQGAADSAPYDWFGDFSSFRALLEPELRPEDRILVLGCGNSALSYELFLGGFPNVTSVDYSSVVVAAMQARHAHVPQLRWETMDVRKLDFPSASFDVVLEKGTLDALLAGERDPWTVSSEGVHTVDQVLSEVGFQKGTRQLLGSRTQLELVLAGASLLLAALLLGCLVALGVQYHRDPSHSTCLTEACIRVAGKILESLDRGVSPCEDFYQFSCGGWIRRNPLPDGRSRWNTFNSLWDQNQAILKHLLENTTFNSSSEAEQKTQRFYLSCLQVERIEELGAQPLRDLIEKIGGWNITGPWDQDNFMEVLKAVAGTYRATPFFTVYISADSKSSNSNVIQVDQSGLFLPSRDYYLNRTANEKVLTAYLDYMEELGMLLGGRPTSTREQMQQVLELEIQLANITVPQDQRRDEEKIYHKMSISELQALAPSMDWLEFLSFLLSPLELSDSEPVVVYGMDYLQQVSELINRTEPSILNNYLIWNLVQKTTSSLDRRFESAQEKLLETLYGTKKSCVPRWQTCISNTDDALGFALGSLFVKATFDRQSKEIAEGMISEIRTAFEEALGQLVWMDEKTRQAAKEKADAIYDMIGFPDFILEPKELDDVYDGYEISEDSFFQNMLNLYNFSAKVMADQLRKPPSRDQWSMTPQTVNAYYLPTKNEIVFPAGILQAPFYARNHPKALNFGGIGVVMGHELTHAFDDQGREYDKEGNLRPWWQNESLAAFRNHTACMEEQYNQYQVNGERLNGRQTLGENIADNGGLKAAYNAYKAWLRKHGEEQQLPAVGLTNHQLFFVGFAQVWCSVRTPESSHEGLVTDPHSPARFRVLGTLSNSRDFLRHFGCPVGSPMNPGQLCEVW

Structure (SMILES) | IC50 [1] [nM] | IC50 ([2]; pH 5.5) [nM] | IC50 ([2]; pH 7.4) [nM]
Cc1[nH]nc(NC(=O)NS(=O)(=O)c2ccc(Cl)cc2)c1C#N [SM19712] | 5 | > 100000 | 1100
Oc1ccccc1/C=C\c1ccc2ccccc2n1 [2-(2-(quinolin-2-yl)vinyl)phenol] | 1600 | > 100000 | > 100000
